Patent US20120021044A1, “Novel Cationic Lipid, A Preparation Method of the Same and A Delivery System Comprising the Same” (SNU R&DB FOUNDATION, priority 2007, published 2012)

Test system: Bcl2 transcript in SiHa cells
Assay: Bcl2 transcript expression by RT-PCR after delivery of Bcl2 antisense oligonucleotide into SiHa cells
Format: cell-based, human
Settings: Bcl2 antisense oligonucleotide 100 nM, 24 hours, FIG. 8
Procedure: On the day prior to the experiment, SiHa cells were seeded on 24-well plates at a density of 8×10^4 cells/well. […] The antisense oligonucleotide to induce the inhibition of expression of the Bcl2 gene (Genbank accession number: […] These materials were slowly pipetted, mixed and allowed to stand at room temperature for 20 min, thus resulting in formation of complexes. The thus-prepared complexes were added to the well plates, followed by cell culture in a CO2 incubator at 37° C. for 24 hours. After 24 hours, total RNA was isolated from the cultured cells using a Trizol reagent (Invitrogen, Carlsbad, Calif., USA) and then reverse-transcribed into cDNA using AccuPower RT PreMix (Bioneer, Daejeon, Korea). […] An expression level of the Bcl2 transcript was assayed by determining quantitative changes of the gene expression through normalization of a band density of the Bcl2-specific PCR product against a band density occurring by amplification of the GAPDH (glyceraldehyde-3-phosphate dehydrogenase) gene.

antisense oligonucleotide-alone: Bcl2 antisense oligonucleotide 5'-TCT CCC AGC GTG CGC CAT-3' (Bioneer), given without delivery system (antisense TCTCCCAGCGTGCGCCAT; chemistry not given here)
amount of the Bcl2 transcript (RT-PCR, normalized against GAPDH): no changes in an amount of the Bcl2 transcript
